Data taken from US9539237B2, “Compositions and methods for drug-sensitization or inhibition of a cancer cell” (The Texas A&M University System, priority 2012, dated 2017).

How the values were obtained:
[1] = system: multi-drug resistant ovarian carcinoma cell line SK-OV3; test: Cell growth assay on SK-OV3 cells; type: cell-based, human
Text: (§1) In these experiments, the following cell lines were used: CHOP-resistant NHL cell line G3, CHOP-sensitive NHL cell line CRL2631, the multi-drug resistant sarcoma cell line MES-SA-Dx5; multi-drug-resistant breast cancer cell line MDA-MB-231, multi-drug resistant ovarian carcinoma cell line SK-OV3, multi-drug resistant ovarian cancer cell line NCI/ADR-RES, drug-sensitive ovarian cancer cell line OVCAR-5, and multi-drug resistant ovarian cancer cell line OVCAR-3. […]

[2] = system: CHOP-resistant G3 NHL cells; test: Cell growth assay (resazurin fluorescence) on G3 cells; type: cell-based, human; conditions: for Magnitude of potentiation in combination with doxorubicin: G3; for Fold increase in potency over DOX alone: lymphoma cell line G3
Procedure: Compositions were tested on CHOP-resistant G3 NHL cells that had been cultivated in RPMI medium for five days. Prior to assay, the cells were counted by haemocytometer and cell concentration standardized to 625,000 cells/ml. Test drugs were solubilized in 100% DMSO and then diluted to final assay concentration with 0.1M phosphate buffered saline (PBS) and a final DMSO concentration of 0.5%. […] The metabolic dye rezasurin was added to the wells of the assay plate at a final concentration of 20 μg/ml and the plates were incubated for an additional 24 hours. The plates were then read in a BMG Polarstar plate reader at wavelength (573-605) and the data plotted as OD versus increasing dilutions (i.e., decreasing total amounts) of rifabutin derivative concentration.
as §1

[3] = system: multi-drug resistant ovarian cancer cell line OVCAR-3; test: Cell growth assay on OVCAR-3 cells; type: cell-based
Text: (§2) In these experiments, the following cell lines were used: CHOP-resistant NHL cell line G3, CHOP-sensitive NHL cell line CRL2631, the multi-drug resistant sarcoma cell line MES-SA-Dx5; multi-drug-resistant breast cancer cell line MDA-MB-231, multi-drug resistant ovarian carcinoma cell line SK-OV3, multi-drug resistant ovarian cancer cell line NCI/ADR-RES, drug-sensitive ovarian cancer cell line OVCAR-5, and multi-drug resistant ovarian cancer cell line OVCAR-3.
(§3) Additional cell lines used include: ovarian cancer OVCAR-8. T lymphoblastoid leukemia MOLT-4, dexamethasone-resistant multiple myeloma MM.1R, myeloid leukemia cells HL-60, osteosarcoma cells U-2 OS, and myeloma RPMI 8226.

[4] = system: multi-drug-resistant breast cancer cell line MDA-MB-231; test: Cell growth assay on MDA-MB-231 cells; type: cell-based
Text: as §2, §3

[5] = system: G3 CHOP-resistant NHL cells; test: G3 tumor efficacy studies in SCID mice; type: in vivo; conditions: fourth study
Procedure: In a first efficacy study, 6-8 week old female SCID mice (7 mice per treatment arm) were injected subcutaneously on both flanks with 1×10^7 G3 CHOP-resistant NHL cells. Once palpable tumors (about […] size) appeared, therapies (CHOP or CHOP+rifabutin) were started. CHOP was administered at the maximum tolerated dose (cyclophosphamide, 40 mg/kg i.v.; doxorubicin, 3.3 mg/kg i.v.; vincristine, 0.5 mg/kg i.v.; and prednisone, 0.2 mg/kg orally daily for 5 d) weekly for 3 weeks. Rifabutin in an amount of 100 mg/kg was administered on the day of each CHOP treatment and 24-hours later by gavage. Mouse body weight and tumor size were monitored every two days and tumor size measured by caliper. The tumor volume formula (L*W*W)/2 was used to calculate tumor mass.
A second efficacy study was conducted where mice were treated before the appearance of palpable tumors. In that experiment, one week after transplantation of CHOP-resistant G3 cells, one group (7 mice) was treated with CHOP-only and a second group (8 mice) was treated with CHOP+rifabutin.
A third study was conducted in which mice injected with CHOP-resistant G3 cells received reduced dosages of CHOP in combination with 33 mg/kg rifabutin. CHOP+rifabutin was administered weekly beginning one week post-inoculation. Control mice were given no CHOP or rifabutin.
SCID mice were injected with CHOP-resistant G3 cells in the same manner as the first efficacy study above. Treatments began 2 weeks post-inoculation and were administered twice weekly.

[6] = system: multi-drug resistant ovarian cancer cell line NCI/ADR-RES; test: Cell growth assay on NCI/ADR-RES cells; type: cell-based
Text: as §2, §3

[7] = system: multi-drug resistant sarcoma cell line MES-SA-Dx5; test: Cell growth assay on MES-SA-Dx5 cells; type: cell-based
Text: as §2, §3

total intracellular ROS = test: Intracellular ROS by CellROX staining and flow cytometry; type: cell-based
Text: Cells were then stained with the fluorescent ROS indicator, CellROX, and subjected to flow cytometry to quantitate total intracellular ROS.
The electron transport chain (ETC) is known to be a primary generator of ROS in the cell. Most of the ROS is generated by Complexes I and III of the ETC. Inhibition of Complex I results in electrons piling up and leaking to react with oxygen to produce ROS.
MDR/P-gp activity is closely associated with calcium status in the cell, so calcium modulators were tested for effects on ROS. […] Relatively Dox-sensitive lymphoma (CRL2631, 10S, WSU) and ovarian carcinoma (OVCAR8) and more Dox-resistant lymphoma (G3R, 10R, WSUR) and ovarian carcinoma (ADR) were treated with 10 uM […] for 2 hrs. […] Cells were co-stained with the cell-permeable red fluorescent ROS indicator, CellROX, and cell-permeable green fluorescent calcium indicator. Fluo-4AM, and then subjected to flow cytometry to quantitate changes in ROS and calcium levels.
All samples were analyzed at the same time in flow cytometry.

[8] = Dox-resistant G3 lymphoma cells, FIG. 40

| Molecule | Magnitude of potentiation in combination with doxorubicin [1] | Magnitude of potentiation in combination with doxorubicin [2] | Fold increase in potency over DOX alone [2] | Magnitude of potentiation in combination with doxorubicin [3] | other results |
| --- | --- | --- | --- | --- | --- |
| 4-deoxy-3,4[2-spiro-[1-(isobutylaminocarbonyl)-piperidin-4-yl]]-(1H)-imidazo-(2,5-dihydro)rifamycin S [RTI-102] | +++ (+++ potentiation greater than 5 fold increase) | ++ (++ potentiation between 2.1 to 5 fold increase) |  |  |  |
| 4-deoxy-3,4[2-spiro-[1-(n-propyloxycarbonyl)-piperidin-4-yl]]-(1H)-imidazo-(2,5-dihydro)rifamycin S [RTI-78] |  |  | 29.5 fold |  |  |
| 11-deoxy-11-amino-4-deoxy-3,4[2-spiro-[1-(isobutylaminocarbonyl)-piperidin-4-yl]]-(1H)-imidazo-(2,5-dihydro)rifamycin S [RTI-183] |  |  | 0.5 fold | + (+ potentiation between 1.2 to 2.0 fold increase) |  |
| 11-deoxy-11-imino-4-deoxy-3,4[2-spiro-[1-(2-methoxyethyl)-piperidin-4-yl]]-(1H)-imidazo-(2,5-dihydro)rifamycin S [RTI-51] | + (+ potentiation between 1.2 to 2.0 fold increase) |  | 0.7 fold | + (+ potentiation between 1.2 to 2.0 fold increase) |  |
| 11-deoxy-11-imino-4-deoxy-3,4[2-spiro-[1-(2-morpholinoethyl)-piperidin-4-yl]]-(1H)-imidazo-(2,5-dihydro)rifamycin S [RTI-53] | + (+ potentiation between 1.2 to 2.0 fold increase) |  | 0.2 fold | + (+ potentiation between 1.2 to 2.0 fold increase) |  |
| 11-deoxy-11-imino-4-deoxy-3,4[2-spiro-[1-(isobutylaminocarbonyl)-piperidin-4-yl]]-(1H)-imidazo-(2,5-dihydro)rifamycin S [RTI-182] | ++ (++ potentiation between 2.1 to 5 fold increase) | + (+ potentiation between 1.2 to 2.0 fold increase) | 2.0 fold | + (+ potentiation between 1.2 to 2.0 fold increase) | Magnitude of potentiation in combination with doxorubicin [4]: ++ (++ potentiation between 2.1 to 5 fold increase) |
| 11-deoxy-11-imino-4-deoxy-3,4[2-spiro-[1-(isobutyloxycarbonyl)-piperidin-4-yl]]-(1H)-imidazo-(2,5-dihydro)rifamycin S [RTI-81] | +++ (+++ potentiation greater than 5 fold increase) | +++ (+++ potentiation greater than 5 fold increase) |  |  | Longer life than doxorubicin only ([5]; DOX 3.3 mg/kg iv + RTI-81 10 mg/kg by gavage twice weekly): 27%; Mean lifespan ([5]; doxorubicin+RTI-81 group): 42.6; Median lifespan ([5]; doxorubicin+RTI-81 group): 42; Magnitude of potentiation in combination with doxorubicin [6]: + (+ potentiation between 1.2 to 2.0 fold increase); Magnitude of potentiation in combination with doxorubicin [7]: ++ (++ potentiation between 2.1 to 5 fold increase) |
| O=c1[nH]c2ccccc2n1C1CCN(Cc2ccc(-c3nc4cc5[nH]cnc5cc4nc3-c3ccccc3)cc2)CC1 [Akt Inhibitor VIII, reference compound] |  |  |  |  | Reversal of CHOP resistance ([2]; G3 cells, FIG. 30B): dose-dependent reversal of CHOP resistance |
| CC(=O)OCOC(=O)CN(CC(=O)OCOC(C)=O)c1ccccc1OCCOc1ccccc1N(CC(=O)OCOC(C)=O)CC(=O)OCOC(C)=O [BAPTA-AM] |  |  |  |  | Induction of ROS (total intracellular ROS; [8]): induced ROS |
| CCNC(=O)N1CCC2(CC1)N=c1c3c(O)c4c(O)c(C)c5c(c4c1=N2)C(=N)[C@@](C)(O/C=C/[C@H](OC)[C@@H](C)[C@@H](OC(C)=O)[C@H](C)[C@H](O)[C@H](C)[C@@H](O)[C@@H](C)/C=C/C=C(/C)C(=O)N3)O5 [RTI-82, 11-deoxy-11-imino-4-deoxy-3,4[2-spiro-[1-(ethylaminocarbonyl)-piperidin-4-yl]]-(1H)-imidazo-(2,5-dihydro)rifamycin S] |  |  | 0.7 fold |  | Magnitude of potentiation in combination with doxorubicin [4]: +++ (+++ potentiation greater than 5 fold increase) |
| CO[C@H]1/C=C/O[C@@]2(C)Oc3c(C)c(O)c4c(O)c(c5c(c4c3C2O)=NC2(CCN(CC(C)C)CC2)N=5)NC(=O)/C(C)=C\C=C\[C@H](C)[C@H](O)[C@@H](C)[C@@H](O)[C@@H](C)[C@H](OC(C)=O)[C@@H]1C (stereo partly drawn) [RTI-174, 11-deoxy-11-hydroxy-4-deoxy-3,4[2-spiro-[1-(2-methylpropyl)-piperidin-4-yl]]-(1H)-imidazo-(2,5-dihydro)rifamycin S] | + (+ potentiation between 1.2 to 2.0 fold increase) | ++ (++ potentiation between 2.1 to 5 fold increase) |  | + (+ potentiation between 1.2 to 2.0 fold increase) | Magnitude of potentiation in combination with doxorubicin [6]: + (+ potentiation between 1.2 to 2.0 fold increase) |
| COC1C=COC2(C)Oc3c(C)c(O)c4c(c3C2N)C2=NC3(CCN(CC(C)C)CC3)NC2=C(NC(=O)C(C)=CC=CC(C)C(O)C(C)C(O)C(C)C(OC(C)=O)C1C)C4=O (stereo not drawn) [RTI-181, 11-deoxy-11-amino-4-deoxy-3,4[2-spiro-[1-(2-methylpropyl)-piperidin-4-yl]]-(1H)-imidazo-(2,5-dihydro)rifamycin S] | +++ (+++ potentiation greater than 5 fold increase) | +++ (+++ potentiation greater than 5 fold increase) | 5.5 fold | + (+ potentiation between 1.2 to 2.0 fold increase) |  |
| C=C(C)[C@H]1Cc2c(ccc3c2O[C@@H]2COc4cc(OC)c(OC)cc4[C@@H]2C3=O)O1 [Rotenone] |  |  |  |  | Induction of ROS (total intracellular ROS; [8]): induced ROS |
| COC(=O)[C@H]1[C@H]2C[C@@H]3c4[nH]c5cc(OC)ccc5c4CCN3C[C@H]2C[C@@H](OC(=O)c2cc(OC)c(OC)c(OC)c2)[C@@H]1OC [reserpine] |  |  |  |  | Induction of ROS relative to control drugs (total intracellular ROS; ADR and OVCAR8 cells, FIG. 41A): induced ROS; Induction of ROS (total intracellular ROS; OVCAR8, ADR-RES and G3 cells, 2 hrs, 10 uM, FIG. 38): induced ROS |
| antimycin A |  |  |  |  | Induction of ROS (total intracellular ROS; [8]): not |
